Experimental data published in US20050233904A1, “Herbicide-safener combination” (Bayer CropScience GmbH, priority 2004, published 2005).

Legend:
Assay type in all cases: in vivo
[1] = test system: crop plants such as cotton, oil seed rape, sugar beet and Gramineae crops such as barley, wheat, rye, millet, corn or rice; settings: herbicide-safener combination with the safeners dymron (b-14), fenclorim (b-11), cumyluron (b-4), isoxadifen-ethyl (II-9), mefenpyr-diethyl (II-1), cloquintocet-mexyl (III-1), S3-1, h-1, h-2, h-3, dietholate (b-7), disulfoton (b-5), 1,8-naphthalic anhydride (b-1), fluxofenim (b-10), dichlormid (IV-1), benoxacor (IV-2), flurazole (b-12), R-29148 (IV-4); pre-emergence or post-emergence method; score
Source text: (§1) Seeds or rhizome pieces of monocotyledonous and dicotyledonous weed plants were placed in sandy loam soil in cardboard pots and covered with soil. The active compounds (A) and (B), formulated in the form of wettable powders or emulsion concentrates, were then applied to the surface of the covering soil in various dosages as an aqueous suspension or emulsion using a water application rate of 600 to 800 I/ha (converted).
(§2) Seeds or rhizome pieces of monocotyledonous and dicotyledonous weeds were placed into sandy loam soil in plastic pots, covered with soil and grown in a greenhouse under good growth conditions. Three weeks after sowing, the test plants were treated at the three-leaf stage. The compounds according to the invention, formulated as wettable powders or as emulsion concentrates, were sprayed onto the green parts of the plants at various dosages using a water application rate of 600 to 800 I/ha (converted). The test plants were stood in the greenhouse under optimum growth conditions for about three to four weeks, and the action of the preparations was then scored visually in comparison to untreated controls. Post-emergence, too, the herbicide-safener combinations according to the invention have good herbicidal activity against a broad spectrum of economically important weed grasses and broad-leaved weeds.
In further greenhouse trials, seeds of a relatively large number of crop plants and weeds were placed into sandy loam soil and covered with soil. Some of the pots were immediately treated as described in Section 1, the others were placed in a greenhouse until the plants had developed two to three true leaves and were then sprayed with various dosages of the herbicide-safener combinations according to the invention, as described in Section 2.

[2] = test system: harmful plants such as Sinapis alba, Chrysanthemum segetum, Avena sativa, Stellaria media, Echinochloa crus-galli, Lolium multiflorum, Setaria viridis …; assay: Pre-emergence action against weeds (greenhouse pot test, optical scoring vs untreated controls); settings: herbicide-safener combination with the safeners dymron (b-14), fenclorim (b-11), cumyluron (b-4), isoxadifen-ethyl (II-9), mefenpyr-diethyl (II-1), cloquintocet-mexyl (III-1), S3-1, h-1, h-2, h-3, dietholate (b-7), disulfoton (b-5), 1,8-naphthalic anhydride (b-1), fluxofenim (b-10), dichlormid (IV-1), benoxacor (IV-2), flurazole (b-12), R-29148 (IV-4); application rate of 100 g or less of herbicid
Source text: as §1
After the treatment, the pots were placed in a greenhouse and kept under good growth conditions for the weeds. Optical scoring of the damage to the plants or emerged plants was carried out after emergence of the test plants after a trial period of 3 to 4 weeks, in comparison to untreated controls. As shown by the results, the tested herbicide-safener combinations have good herbicidal pre-emergence activity against a broad spectrum of weed grasses and broad-leaved weeds.

[3] = test system: harmful plants such as Sinapis alba, Echinochloa crus-galli, Lolium multiflorum, Chrysanthemum segetum, Setaria viridis, Abutilon theophrasti, Amaranthus …; assay: Post-emergence action against weeds (greenhouse pot test, visual scoring vs untreated controls); settings: herbicide-safener combination with the safeners dymron (b-14), fenclorim (b-11), cumyluron (b-4), isoxadifen-ethyl (II-9), mefenpyr-diethyl (II-1), cloquintocet-mexyl (III-1), S3-1, h-1, h-2, h-3, dietholate (b-7), disulfoton (b-5), 1,8-naphthalic anhydride (b-1), fluxofenim (b-10), dichlormid (IV-1), benoxacor (IV-2), flurazole (b-12), R-29148 (IV-4); treated at three-leaf stage; application rate
Procedure: as §2

Row | SMILES | damage to crop plants [1] | herbicidal activity against harmful plants, pre-emergence method [2] | herbicidal activity against harmful plants, post-emergence method [3]
1 | O=C([N-]S(=O)(=O)c1ncccc1C1=NOCCO1)Nc1nc(Cl)cc(OCC(F)(F)F)n1.[Na+] [Compound I-145] | did not cause any damage | very good herbicidal activity | very good herbicidal activity
2 | CN(C)c1nc(NC(=O)NS(=O)(=O)c2ncccc2C2=NOCCO2)nc(OCC(F)(F)F)n1 [Compound I-142] | did not cause any damage | very good herbicidal activity | very good herbicidal activity
3 | COc1nc(NC(=O)[N-]S(=O)(=O)c2ncccc2C2=NOCCO2)nc(N(C)C)n1.[Na+] [Compound I-60] | did not cause any damage | very good herbicidal activity | very good herbicidal activity
4 | CCOc1cc(Cl)nc(NC(=O)[N-]S(=O)(=O)c2ncccc2C2=NOCCO2)n1.[Na+] [Compound I-22] | did not cause any damage | very good herbicidal activity | very good herbicidal activity
5 | COc1cc(Cl)nc(NC(=O)[N-]S(=O)(=O)c2ncccc2C2=NOCCO2)n1.[Na+] [Compound I-10] | did not cause any damage | very good herbicidal activity | very good herbicidal activity
6 | COc1nc(NC(=O)NS(=O)(=O)c2ncccc2C2=NOCCO2)nc(OC)n1 [Compound I-51] | did not cause any damage | very good herbicidal activity | very good herbicidal activity
7 | CCOc1cc(OCC)nc(NC(=O)[N-]S(=O)(=O)c2ncccc2C2=NOCCO2)n1.[Na+] [Compound I-14] | did not cause any damage | very good herbicidal activity | very good herbicidal activity
8 | CCOc1nc(Cl)nc(NC(=O)[N-]S(=O)(=O)c2ncccc2C2=NOCCO2)n1.[Na+] [Compound I-70] | did not cause any damage | very good herbicidal activity | very good herbicidal activity
9 | COc1nc(NC(=O)[N-]S(=O)(=O)c2ncccc2C2=NOCCO2)nc(OC)n1.[Na+] [Compound I-52] | did not cause any damage | very good herbicidal activity | very good herbicidal activity
10 | Cc1cc(C)nc(NC(=O)NS(=O)(=O)c2ncccc2C2=NOCCO2)n1 [Compound I-23] | did not cause any damage | very good herbicidal activity | very good herbicidal activity
11 | COc1cc(OC)nc(NC(=O)NS(=O)(=O)c2ncccc2C2=NOCCO2)n1 [Compound I-11] | did not cause any damage | very good herbicidal activity | very good herbicidal activity
12 | CCOc1cc(OC)nc(NC(=O)NS(=O)(=O)c2ncccc2C2=NOCCO2)n1 [Compound I-1] | did not cause any damage | very good herbicidal activity | very good herbicidal activity
13 | COc1cc(OC)nc(NC(=O)[N-]S(=O)(=O)c2ncccc2C2=NOCCO2)n1.[Na+] [Compound I-12] | did not cause any damage | very good herbicidal activity | very good herbicidal activity
14 | CCOc1cc(Cl)nc(NC(=O)NS(=O)(=O)c2ncccc2C2=NOCCO2)n1 [Compound I-21] | did not cause any damage | very good herbicidal activity | very good herbicidal activity
15 | COc1cc(Cl)nc(NC(=O)NS(=O)(=O)c2ncccc2C2=NOCCO2)n1 [Compound I-9] | did not cause any damage | very good herbicidal activity | very good herbicidal activity
16 | O=C(Nc1nc(Cl)cc(OCC(F)(F)F)n1)NS(=O)(=O)c1ncccc1C1=NOCCO1 [Compound I-143] | did not cause any damage | very good herbicidal activity | very good herbicidal activity
17 | COc1cc(C)nc(NC(=O)[N-]S(=O)(=O)c2ncccc2C2=NOCCO2)n1.[Na+] [Compound I-3] | did not cause any damage | very good herbicidal activity | very good herbicidal activity
18 | Cc1cc(Cl)nc(NC(=O)[N-]S(=O)(=O)c2ncccc2C2=NOCCO2)n1.[Na+] [Compound I-30] | did not cause any damage | very good herbicidal activity | very good herbicidal activity
19 | Cc1cc(Cl)nc(NC(=O)NS(=O)(=O)c2ncccc2C2=NOCCO2)n1 [Compound I-29] | did not cause any damage | very good herbicidal activity | very good herbicidal activity
20 | COc1cc(N(C)C)nc(NC(=O)NS(=O)(=O)c2ncccc2C2=NOCCO2)n1 [Compound I-8] | did not cause any damage | very good herbicidal activity | very good herbicidal activity
